Literature values in patent publication US20240041861A1, “COMPOSITIONS AND METHODS FOR TREATMENT AND PROPHYLAXIS OF VIRAL INFECTIONS” (priority 2020, published 2024).
≈ marks a conversion by molar mass, not a printed value. Where two headings read alike, the source gives them in different places.

Tests used:
[1] = in vivo
PDE5 = PDE5 (Homo sapiens, UniProt O76074)
[2] = not given; remark: listed apart in the source
[3] = not given; remark: listed apart in the source
[4] = in vivo; remark: listed apart in the source
[5] = human, in vivo

CC(C)(C)OC(=O)N[C@H]1CCCCC/C=C\[C@@H]2C[C@@]2(C(=O)NS(=O)(=O)C2CC2)NC(=O)[C@@H]2C[C@@H](OC(=O)N3Cc4cccc(F)c4C3)CN2C1=O [Danoprevir]
EC50 (replicon GT1b): 1.6 nM | IC50 (NS3/4A HCV protease GT1b): 0.2 to 0.4 nM

CCCc1nn(C)c2c(=O)[nH]c(-c3cc(S(=O)(=O)N4CCNCC4)ccc3OCC)nc12 [N-desmethyl metabolite]
terminal half lives [1]: about 4 hours | bound to plasma proteins: approximately 96% | in vitro potency for PDE5 relative to the parent drug (PDE5): approximately 50%

CC(C)Nc1cccnc1N1CCN(C(=O)c2cc3cc(NS(C)(=O)=O)ccc3[nH]2)CC1 [delavirdine free base]
solubility ([2]; pH 1): 2940 µg/mL (≈ 6440 µM) | solubility ([2]; pH 2): 295 µg/mL (≈ 646 µM) | solubility ([2]; pH 7.4): 0.81 µg/mL (≈ 1.77 µM)

CCN(CCO)CCCC(C)Nc1ccnc2cc(Cl)ccc12 (centres unmarked) [hydroxychloroquine]
half-life ([3]; in vivo): about 40 days | mean fraction of the dose absorbed ([3]; in vivo): 0.74 | dose excreted as the parent drug in urine ([3]; in vivo, po): approximately 10% | half-life ([3]; in vivo, po, 200 mg): 22.4 days | mean peak blood concentration ([3]; single 200 mg oral dose of PLAQUENIL, healthy males, blood): 129.6 ng/mL | half-life ([3]; single 200 mg oral dose, healthy males, plasma): 123.5 days | fraction of the dose absorbed [4]: 30-100% | renal clearance of unchanged drug [4]: 16-30% | absorption half-life ([4]; po): 0.12 to 0.17 days | terminal half-life ([4]; po): 40 to 50 days | time of peak plasma levels ([4]; po): 3 to 4 h

CC(C)c1nc(CN(C)C(=O)N[C@H](C(=O)N[C@@H](Cc2ccccc2)C[C@H](O)[C@H](Cc2ccccc2)NC(=O)OCc2cncs2)C(C)C)cs1 [ritonavir]
plasma levels relative to those obtained after the ritonavir dose of 600 mg twice daily [5]: less than 7%

CCCc1nn(C)c2c(=O)[nH]c(-c3cc(S(=O)(=O)N4CCN(C)CC4)ccc3OCC)nc12 [sildenafil]
mean steady state volume of distribution (Vss) [1]: 105 L | terminal half lives [1]: about 4 hours | bound to plasma proteins: approximately 96%
